In patent US20250262192A1, “PROGNOSTIC PATHWAYS FOR HIGH RISK SEPSIS PATIENTS” (KONINKLIJKE PHILIPS N.V., priority 2021, published 2025):
“And” between values parts separate entries of the source, which are not always exact repeats. Equal values may be shown once. “Also recorded” adds a separate entry of the source.

Legend:
[1] = system: AR signaling pathway; test: THP-1 sepsis treatment model, qPCR-based STP activity score; assay type: cell-based; conditions: for Effect on AR PAS in LPS-stimulated THP-1 monocytes: THP-1 monocyte sepsis treatment model (Table 11); for Average AR STP activity score: 24 hours
Procedure: (§1) In the treatment model the pathway inhibitor and LPS were added at the same time and the THP-1 cells were incubated for 24 hours prior to isolating RNA and determining pathway activities.
(§2) For the first application, THP-1 cells were pre-incubated for 24 hours with the drug of choice, and subsequently LPS was added for 24 hours. For the treatment application, the drug and LPS were added simultaneously to the cells for 24 hours. Importantly: Some drugs needs processing in the body to become effective, this is the case for some of the androgen receptor (AR) pathway inhibitors, such as bicalutamide. In this case we have also tested the active variant of the drug (in the case of bicalutamide: (R-)bicalutamide).
(§3) LPS is considered the main mediator of the sepsis symptoms. An in vitro experiment was designed where monocytes were stimulated with LPS and subsequently treated with a variety of inhibitors. Monocytes were chosen as they have been described to play a major role in sepsis, see for example Sukhacheva, [34], Clinical Laboratory Int. 26 Aug.
(§4) Sepsis treatment model: For the treatment application, the drug and LPS were added simultaneously to the cells for 24 hours. Compounds and concentrations are described in Table 11 and Table 12 for healthy volunteer PBMCs.
(§5) After stimulation cells were harvested and RNA was extracted using the RNeasy mini kit (Qiagen, 74104). qPCR-based STP activity scores were calculated using the Philips Research OncoSignal platform (www.philips.com/oncosignal), as described herein.
(§6) Two concentrations of LPS 0.5 and 5 ng/ml were used in the experiments, furthermore for the THP-1 cell line an higher passage number (px-53-55) and a lower passage number (px-13-15) were used (Table 11). the THP-1 cell line with the lower passage was more reactive towards LPS activation compared to the higher passage number (data not shown).

[2] = system: TGFbeta signaling pathway; test: as above; assay type: cell-based; conditions: for Effect on TGFbeta PAS in LPS-stimulated THP-1 monocytes: THP-1 monocyte sepsis treatment model (Table 11); for Average TGFb STP activity score: 24 hours
Procedure: as §1, §2, §3, §4, §5, §6

[3] = system: AR pathway; test: PBMCs of sepsis patients treated in vitro 24 hours with inhibitors, pathway activity score; assay type: cell-based, human; set-up: AR Pathway activity scores of sepsis PBMC patients: scale not given here
Procedure: (§7) PBMC samples from healthy volunteers and sepsis patients were obtained via Tissue solutions. Briefly, cryopreserved PBMCs were first washed with washing buffer (PBS/1% BSA/2 mM EDTA), centrifuged and pellet resuspended in culture medium (RPM11640 without phenol red+8.5% charcoal stripped FBS+1% Glx+1% p/s). 0.5·10^5-1·10^6 cells were seeded per well in 24 wells plate and rested for 1 hour before treatment experiment. 10 PBMC samples from healthy donors were used to; (1) measure the baseline pathway levels, (2) activate with LPS
(§8) Sepsis treatment model: PBMC derived from sepsis patients (n=20) were treated 24 hours with compounds, DMSO or combination of compounds. (PBMC from healthy and sepsis patients are originating from the same hospital to minimize bias in sample prep). After stimulation cells were harvested and RNA was extracted using the RNeasy mini kit (Qiagen, 74104). qPCR was performed using the Philips Research OncoSignal platform.
(§9) In total 18 PBMCs sepsis samples were treated for 24 hours with selected inhibitors (and combinations), 6 patient samples per experiment.

[4] = system: TGFbeta pathway; test: as above; assay type: cell-based, human; set-up: scale not given here
Procedure: as §7, §8, §9

[5] = system: AR pathway; test: PBMCs of healthy volunteers stimulated with LPS with or without drugs, pathway activity score; assay type: cell-based, human; conditions: for AR PAS: PBMCs of individual healthy volunteers
Procedure: as §4, §7
(§10) PBMCs of healthy volunteers were stimulated with 5 ng/ml LPS for 24 hours in combination with (R)-Bicalutamide and (R)-Bicalutamide+Vactosertib (experiment 1). In experiment 2, (R)-Bicalutamide and etanercept were tested with 0.5 ng/ml LPS (Table 12A for exp 1 and Table 12B for exp 2).

[6] = system: TGFbeta pathway; test: as above; assay type: cell-based, human; conditions: for TGFbeta PAS: PBMCs of individual healthy volunteers
Procedure: as §4, §7, §10

[7] = THP-1 px 13-15, LPS 5 ng/ml alone or with Resatorvid 10 uM
[8] = EXP 2, individual patient samples, Resatorvid 10 uM, D4-abiraterone 10 uM, A-485 100 nM, Galunisertib 10 uM
[9] = THP-1 px 53-55, LPS 0.5 ng/ml alone or with compound, (R)-Bicalutamide 25 uM, Ketodarolutamide 10 uM, D4-abiraterone 10 uM
[10] = THP-1 px 13-15, LPS 0.5 ng/ml alone or with compound, (R)-Bicalutamide 25 uM, N-desmethyl Enzalutamide 2 uM, N-Desmethyl-Apalutamide 3 uM
[11] = experiment 1, PBMCs, LPS 5 ng/ml + drug
[12] = experiment 1, LPS 5 ng/ml 24 hours alone, + (R)-Bicalutamide 25 uM, or + (R)-Bicalutamide 25 uM + Vactosertib 1 uM
[13] = experiment 2, PBMCs, LPS 0.5 ng/ml + drug, Etanercept: not significantly
[14] = experiment 2, LPS 0.5 ng/ml alone, + Etanercept 10 ug/ml, or + (R)-Bicalutamide 25 uM
[15] = EXP 1, individual patient samples, Vactosertib 1 uM, Vactosertib 1 uM + R-bicalutamide 25 uM, Etanercept 10 ug/ml, R-bicalutamide 25 uM

| SMILES | Effect on AR PAS in LPS-stimulated THP-1 monocytes [1] | Effect on TGFbeta PAS in LPS-stimulated THP-1 monocytes [2] | AR Pathway activity scores of sepsis PBMC patients [3, 8] | TGFbeta Pathway activity scores of sepsis PBMC patients [4, 8] | Average AR STP activity score [1, 9] | Average TGFb STP activity score [2, 9] | further results |
| --- | --- | --- | --- | --- | --- | --- | --- |
| CCOC(=O)C1=CCCC[C@H]1S(=O)(=O)Nc1ccc(F)cc1Cl [Resatorvid] | could reduce; also recorded: could be lowered | could lower; also recorded: could be lowered | 24 and 31 | 31 and 37 and 35 and 34 |  |  | Average AR STP activity score [1, 7]: 3.67 normalized scores; Average TGFb STP activity score [2, 7]: 8.00 normalized scores |
| Cc1cccc(-c2nn3c(c2-c2ccnc4ccc(C(N)=O)cc24)CCC3)n1 [Galunisertib] |  |  | 23 |  |  |  |  |
| C[C@]12CCC(=O)C=C1CC[C@@H]1[C@@H]2CC[C@]2(C)C(c3cccnc3)=CC[C@@H]12 [D4-abiraterone] | could reduce | could lower | 24 (3×) and 33 | 32 and 41 and 36 and 40 | 2.67 normalized scores | 11.67 normalized scores |  |
| O=C(Nc1nc2cccc(-c3ccc(CN4CCS(=O)(=O)CC4)cc3)n2n1)C1CC1 [Filgotinib] |  | could lower |  |  |  |  |  |
| C[C@](O)(CS(=O)(=O)c1ccc(F)cc1)C(=O)Nc1ccc(C#N)c(C(F)(F)F)c1 [(R)-Bicalutamide] | could reduce | could lower |  |  | 1.67 normalized scores | 11.67 normalized scores | Average AR STP activity score [1, 10]: 6.67 normalized scores; Average TGFb STP activity score [2, 10]: 14.00 normalized scores; Healthy volunteers showing AR decrease [5, 11]: 3 out of 6; AR PAS [5, 12]: 29 and 26 (2×) and 30 and 25 and 21; Healthy volunteers showing AR PAS decrease [5, 13]: 3 out of 4; AR PAS [5, 14]: 26 and 28 and 30 and 24; Healthy volunteers showing TGFbeta decrease [6, 11]: 3 out of 6; TGFbeta PAS [6, 12]: 29 and 32 and 35 and 31 and 27 and 40; Healthy volunteers showing TGFbeta PAS decrease [6, 13]: 3 out of 4; TGFbeta PAS [6, 14]: 31 and 35 and 33 and 32; AR Pathway activity scores of sepsis PBMC patients [3, 15]: 21; TGFbeta Pathway activity scores of sepsis PBMC patients [4, 15]: 31 and 32 |
